According to ChEMBL document CHEMBL3885861, “Open TG-GATES”:

Species: Rattus norvegicus
Assay: Open TG-GATES - Regimen: Daily Repeat
Format: toxicity, organism-based, Sprague-Dawley
Parameters: regimen Daily Repeat, gender Male, age 6 weeks
Settings: in vivo, po, 100 mg/kg, route gavage, dose level Middle; for APTT / Bas / Eos / Fbg / Hb / Ht / Lym / MCH / MCHC / MCV / Mono / Neu / PT / Plat / RBC / Ret / WBC: tissue Blood; for KIDNEY_L / KIDNEY_R / KIDNEY_TOTAL: tissue Kidney; for LIVER: tissue Liver; for A/G / ALP / ALT / AST / BUN / CRE / Ca / Cl / DBIL / GLC / IP / K / LDH / Na / PL / RALB / TBIL / TC / TG / TP / gamma-GTP: tissue Plasma

`CCCNC(=O)NS(=O)(=O)c1ccc(Cl)cc1` [CHLORPROPAMIDE] gave a TERMINAL_BW (72 h, time 3 day) of 208.2 g, an APTT (72 h, time 3 day) of 17.5 s and a Bas (72 h, time 3 day) of 0%. The Eos (72 h, time 3 day) was 1%, the Fbg (72 h, time 3 day) was 275.8 mg/dL and the Hb (72 h, time 3 day) was 13 g/dL. It also gave a Ht (72 h, time 3 day) of 40.2%, a Lym (72 h, time 3 day) of 77.2% and an MCH (72 h, time 3 day) of 20.8 pg. For the same compound, the MCHC (72 h, time 3 day) was 32.5%, the MCV (72 h, time 3 day) was 64.1 fL and the Mono (72 h, time 3 day) was 2.6%. The Neu (72 h, time 3 day) was 18.2%, the PT (72 h, time 3 day) was 16.2 s and the Plat (72 h, time 3 day) was 111.5 x10_4/uL. It also gave an RBC (72 h, time 3 day) of 626.8 x10_4/ul, a Ret (72 h, time 3 day) of 6.2% and a WBC (72 h, time 3 day) of 65.6 x10_2/uL. The KIDNEY_L (72 h, time 3 day) was 0.9 g, the KIDNEY_R (72 h, time 3 day) was 0.9 g and the KIDNEY_TOTAL (72 h, time 3 day) was 1.8 g. The LIVER (72 h, time 3 day) was 9.3 g, the A/G (72 h, time 3 day) was 0.8 and the ALP (72 h, time 3 day) was 1720.4 IU/L. The ALT (72 h, time 3 day) was 49.2 IU/L, the AST (72 h, time 3 day) was 71.2 IU/L and the BUN (72 h, time 3 day) was 17 mg/dL. The CRE (72 h, time 3 day) was 0.2 mg/dL, the Ca (72 h, time 3 day) was 10.6 mg/dL and the Cl (72 h, time 3 day) was 106.6 meq/L. It also gave a DBIL (72 h, time 3 day) of 0.008 mg/dL, a GLC (72 h, time 3 day) of 174.6 mg/dL and an IP (72 h, time 3 day) of 7.7 mg/dL. The K (72 h, time 3 day) was 3.7 meq/L, the LDH (72 h, time 3 day) was 65.6 IU/L and the Na (72 h, time 3 day) was 142.6 meq/L. For the same compound, the PL (72 h, time 3 day) was 154.6 mg/dL, the RALB (72 h, time 3 day) was 2.6 g/dL and the TBIL (72 h, time 3 day) was 0.022 mg/dL. For the same compound, the TC (72 h, time 3 day) was 85.4 mg/dL, the TG (72 h, time 3 day) was 76.6 mg/dL and the TP (72 h, time 3 day) was 5.7 g/dL. It also gave a gamma-GTP (72 h, time 3 day) of 1 IU/L, a TERMINAL_BW ([…], time 7 day) of 237.9 g and a TERMINAL_BW ([…], time 14 day) of 287.5 g. It also gave a TERMINAL_BW ([…], time 28 day) of 344.3 g, an APTT ([…], time 7 day) of 17.8 s and a Bas ([…], time 7 day) of 0%. For the same compound, the Eos ([…], time 7 day) was 1%, the Fbg ([…], time 7 day) was 277.2 mg/dL and the Hb ([…], time 7 day) was 13.2 g/dL. It also gave a Ht ([…], time 7 day) of 39.7%, a Lym ([…], time 7 day) of 77.8% and an MCH ([…], time 7 day) of 20.7 pg. It also gave an MCHC ([…], time 7 day) of 33.2%, an MCV ([…], time 7 day) of 62.3 fL and a Mono ([…], time 7 day) of 2.8%. For the same compound, the Neu ([…], time 7 day) was 17.2%, the PT ([…], time 7 day) was 16 s and the Plat ([…], time 7 day) was 112.6 x10_4/uL. It also gave an RBC ([…], time 7 day) of 638 x10_4/ul, a Ret ([…], time 7 day) of 6.6% and a WBC ([…], time 7 day) of 118.8 x10_2/uL. For the same compound, the APTT ([…], time 14 day) was 17.7 s, the Bas ([…], time 14 day) was 0.2% and the Eos ([…], time 14 day) was 0.8%. It also gave a Fbg ([…], time 14 day) of 275.8 mg/dL, a Hb ([…], time 14 day) of 13.8 g/dL and a Ht ([…], time 14 day) of 40.9%. It also gave a Lym ([…], time 14 day) of 79.4%, an MCH ([…], time 14 day) of 20.8 pg and an MCHC ([…], time 14 day) of 33.6%. For the same compound, the MCV ([…], time 14 day) was 62 fL, the Mono ([…], time 14 day) was 2.2% and the Neu ([…], time 14 day) was 16.4%. For the same compound, the PT ([…], time 14 day) was 16 s, the Plat ([…], time 14 day) was 107 x10_4/uL and the RBC ([…], time 14 day) was 660.4 x10_4/ul. The Ret ([…], time 14 day) was 4.7%, the WBC ([…], time 14 day) was 97.8 x10_2/uL and the APTT ([…], time 28 day) was 19.5 s. The Bas ([…], time 28 day) was 0%, the Eos ([…], time 28 day) was 1% and the Fbg ([…], time 28 day) was 290.4 mg/dL. The Hb ([…], time 28 day) was 14.6 g/dL, the Ht ([…], time 28 day) was 43.4% and the Lym ([…], time 28 day) was 76.4%. The MCH ([…], time 28 day) was 19.4 pg, the MCHC ([…], time 28 day) was 33.5% and the MCV ([…], time 28 day) was 57.8 fL. The Mono ([…], time 28 day) was 2.6%, the Neu ([…], time 28 day) was 18.6% and the PT ([…], time 28 day) was 16.2 s. For the same compound, the Plat ([…], time 28 day) was 107.8 x10_4/uL, the RBC ([…], time 28 day) was 751 x10_4/ul and the Ret ([…], time 28 day) was 2.5%. It also gave a WBC ([…], time 28 day) of 90.2 x10_2/uL, a KIDNEY_L ([…], time 7 day) of 1 g and a KIDNEY_R ([…], time 7 day) of 1 g. It also gave a KIDNEY_TOTAL ([…], time 7 day) of 2 g, a KIDNEY_L ([…], time 14 day) of 1.2 g and a KIDNEY_R ([…], time 14 day) of 1.2 g. The KIDNEY_TOTAL ([…], time 14 day) was 2.4 g, the KIDNEY_L ([…], time 28 day) was 1.2 g and the KIDNEY_R ([…], time 28 day) was 1.3 g. It also gave a KIDNEY_TOTAL ([…], time 28 day) of 2.5 g, an LIVER ([…], time 7 day) of 11.4 g and an LIVER ([…], time 14 day) of 13.6 g. For the same compound, the LIVER ([…], time 28 day) was 14.2 g, the A/G ([…], time 7 day) was 0.8 and the ALP ([…], time 7 day) was 1392.6 IU/L. For the same compound, the ALT ([…], time 7 day) was 50 IU/L, the AST ([…], time 7 day) was 74.2 IU/L and the BUN ([…], time 7 day) was 18.2 mg/dL. The CRE ([…], time 7 day) was 0.2 mg/dL, the Ca ([…], time 7 day) was 10.8 mg/dL and the Cl ([…], time 7 day) was 107 meq/L. It also gave a DBIL ([…], time 7 day) of 0.01 mg/dL, a GLC ([…], time 7 day) of 194.2 mg/dL and an IP ([…], time 7 day) of 7.4 mg/dL. For the same compound, the K ([…], time 7 day) was 3.6 meq/L, the LDH ([…], time 7 day) was 81.8 IU/L and the Na ([…], time 7 day) was 144.4 meq/L. The PL ([…], time 7 day) was 162.2 mg/dL, the RALB ([…], time 7 day) was 2.6 g/dL and the TBIL ([…], time 7 day) was 0.03 mg/dL. For the same compound, the TC ([…], time 7 day) was 85.4 mg/dL, the TG ([…], time 7 day) was 105.4 mg/dL and the TP ([…], time 7 day) was 5.7 g/dL. It also gave a gamma-GTP ([…], time 7 day) of 1 IU/L, an A/G ([…], time 14 day) of 0.8 and an ALP ([…], time 14 day) of 1782.8 IU/L. The ALT ([…], time 14 day) was 41 IU/L, the AST ([…], time 14 day) was 63 IU/L and the BUN ([…], time 14 day) was 18.8 mg/dL. It also gave a CRE ([…], time 14 day) of 0.2 mg/dL, a Ca ([…], time 14 day) of 10.6 mg/dL and a Cl ([…], time 14 day) of 105.8 meq/L. The DBIL ([…], time 14 day) was 0.01 mg/dL, the GLC ([…], time 14 day) was 208.4 mg/dL and the IP ([…], time 14 day) was 7.7 mg/dL. It also gave a K ([…], time 14 day) of 3.5 meq/L, an LDH ([…], time 14 day) of 99.6 IU/L and a Na ([…], time 14 day) of 144.6 meq/L. It also gave a PL ([…], time 14 day) of 170.2 mg/dL, an RALB ([…], time 14 day) of 2.7 g/dL and a TBIL ([…], time 14 day) of 0.02 mg/dL. For the same compound, the TC ([…], time 14 day) was 77.2 mg/dL, the TG ([…], time 14 day) was 175 mg/dL and the TP ([…], time 14 day) was 5.9 g/dL. The gamma-GTP ([…], time 14 day) was 1 IU/L, the A/G ([…], time 28 day) was 0.8 and the ALP ([…], time 28 day) was 1238 IU/L. For the same compound, the ALT ([…], time 28 day) was 40.2 IU/L, the AST ([…], time 28 day) was 64 IU/L and the BUN ([…], time 28 day) was 16.2 mg/dL. The CRE ([…], time 28 day) was 0.2 mg/dL, the Ca ([…], time 28 day) was 10.4 mg/dL and the Cl ([…], time 28 day) was 107.4 meq/L. For the same compound, the DBIL ([…], time 28 day) was 0.008 mg/dL, the GLC ([…], time 28 day) was 196.6 mg/dL and the IP ([…], time 28 day) was 6.5 mg/dL. For the same compound, the K ([…], time 28 day) was 3.2 meq/L, the LDH ([…], time 28 day) was 72.6 IU/L and the Na ([…], time 28 day) was 144.8 meq/L. It also gave a PL ([…], time 28 day) of 158.8 mg/dL, an RALB ([…], time 28 day) of 2.7 g/dL and a TBIL ([…], time 28 day) of 0.016 mg/dL. It also gave a TC ([…], time 28 day) of 73.4 mg/dL, a TG ([…], time 28 day) of 149.6 mg/dL and a TP ([…], time 28 day) of 6 g/dL. The gamma-GTP ([…], time 28 day) was 1 IU/L.
